Calls of active or inactive are those of the source.
How the values were obtained:
[1] = HEK-293T cell viability reduction – luminescence, B-cell screen hits, cytotoxicity control for BCR NF-kB inhibitor project, dose response (AID 489021); type: functional, cell-based;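 also: HEK-293T cells carrying an NF-kB luciferase reporter; cells exposed to compound for about 14 hours before viability readout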
HeLa = assay: viability loss in HeLa cells – cell-based, 24 h, cherry-picked samples, cytotoxicity control, dose response (AID 504726); type: functional; settings: Homo sapiens;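 also: potency for cytotoxicity as loss of luminescence signal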
[2] = blockade of melanocortin 4 receptor signaling – cell-based, plate reader, cherry pick, counter-screen for LGR2 antagonist project, dose response (AID 743444); type: functional;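 also: transfected HEK 293 cells stimulated with alpha-MSH peptide; potency of inhibitors of the alpha-MSH evoked signal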
[3] = alpha-synuclein stem-loop luciferase translation blockers – H4 neuroglioma cells, luminescence, confirmation (AID 1988); type: functional, cell-based
HT-1080 = assay: HT1080 cell viability loss – fluorescence readout (AID 620); type: functional, cell-based; settings: Homo sapiens
[4] = molecular target: Luciferin 4-monooxygenase (Photinus pyralis, UniProt P08659); assay: Counter Screen for Luciferase-based Assay Positives. [Related pubchem assays: 620, 618, 411 ]
Chain of Luciferin 4-monooxygenase (P08659 whole entry): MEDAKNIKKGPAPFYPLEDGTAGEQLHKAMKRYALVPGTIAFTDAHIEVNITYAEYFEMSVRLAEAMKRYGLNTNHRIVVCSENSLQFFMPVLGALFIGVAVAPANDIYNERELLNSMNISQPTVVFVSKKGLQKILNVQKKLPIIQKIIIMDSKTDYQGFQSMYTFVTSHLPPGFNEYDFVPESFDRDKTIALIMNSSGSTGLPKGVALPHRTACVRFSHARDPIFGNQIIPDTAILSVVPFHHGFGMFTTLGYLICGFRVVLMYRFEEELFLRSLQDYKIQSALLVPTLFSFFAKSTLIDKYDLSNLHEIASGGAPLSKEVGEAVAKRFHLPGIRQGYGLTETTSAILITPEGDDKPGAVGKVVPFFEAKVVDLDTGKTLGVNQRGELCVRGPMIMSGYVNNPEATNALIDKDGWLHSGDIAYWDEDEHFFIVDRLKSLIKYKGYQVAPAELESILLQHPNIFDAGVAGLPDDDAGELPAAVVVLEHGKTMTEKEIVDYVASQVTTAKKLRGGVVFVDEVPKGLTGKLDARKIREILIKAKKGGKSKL

[5] = Luminescence Cell-Based Dose Response HTS to Identify Inhibitors of 5'UTR Stem-Loop Driven Prion Protein mRNA Translation in H4 Neuroglioblastoma Cells. [Related pubchem assays: 1827 (Project Summary), 1813 (Primary HTS)]; type: functional
[6] = blockers of bursicon-stimulated LGR2 cAMP reporter – cell-based, HEK293, CRE-luciferase reporter, cherry pick, set 2, dose response (AID 743343); type: functional;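 also: transfected cells were stimulated with diluted bursicon conditioned medium after compound addition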
Estrogen receptor = molecular target: T1, Estrogen receptor (Homo sapiens, UniProt P03372); assay: blockers of SRC-3 recruitment to ERα – biochemical, ELISA, streptavidin-HRP readout, orthogonal assay, confirmation (AID 1079)
T1 sequence (P03372 whole entry): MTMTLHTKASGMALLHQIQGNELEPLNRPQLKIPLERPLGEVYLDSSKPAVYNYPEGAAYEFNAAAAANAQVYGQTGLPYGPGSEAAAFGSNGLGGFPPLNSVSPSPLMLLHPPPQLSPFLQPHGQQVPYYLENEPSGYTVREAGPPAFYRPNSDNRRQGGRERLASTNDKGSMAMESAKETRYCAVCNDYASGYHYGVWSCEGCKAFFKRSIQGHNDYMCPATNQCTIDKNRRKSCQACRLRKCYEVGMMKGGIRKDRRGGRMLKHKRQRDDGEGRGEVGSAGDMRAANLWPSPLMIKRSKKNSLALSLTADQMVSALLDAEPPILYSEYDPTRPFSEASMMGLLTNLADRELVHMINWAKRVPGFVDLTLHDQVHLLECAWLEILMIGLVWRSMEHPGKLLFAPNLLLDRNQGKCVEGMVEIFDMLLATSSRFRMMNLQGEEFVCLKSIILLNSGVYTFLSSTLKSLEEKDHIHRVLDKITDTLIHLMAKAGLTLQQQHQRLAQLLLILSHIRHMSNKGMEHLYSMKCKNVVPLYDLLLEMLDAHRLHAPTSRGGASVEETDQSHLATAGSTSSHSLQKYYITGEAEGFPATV

Vero = assay: cells; type: functional; settings: Chlorocebus sabaeus
[7] = A Cell Based Secondary Assay To Explore Cytotoxicity of Compounds that Sensitize Mycobacterium Tuberculosis to Beta-Lactam Antibiotics.; type: functional
[8] = A cytotoxicity screen of small molecule inhibitors of the PhoP region in Salmonella typhi identified in the primary screen. [Related pubchem assays: 1850, 1864, 1985 ]; type: functional
[9] = molecular target: Acyl-homoserine lactone acylase PvdQ (Pseudomonas aeruginosa (strain LESB58), UniProt Q9I194); assay: PvdQ acylase enzyme activity blockers – biochemical, fluorescence, plate reader and imaging, cherry-picks, dose response (AID 493231)
Chain of Acyl-homoserine lactone acylase PvdQ (Q9I194 24-193 limits assumed): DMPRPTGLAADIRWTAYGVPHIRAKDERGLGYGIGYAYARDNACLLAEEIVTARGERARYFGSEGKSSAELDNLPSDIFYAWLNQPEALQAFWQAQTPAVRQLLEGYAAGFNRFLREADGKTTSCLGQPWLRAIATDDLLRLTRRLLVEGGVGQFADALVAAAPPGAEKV
Chain of Acyl-homoserine lactone acylase PvdQ (Q9I194 217-762 limits assumed): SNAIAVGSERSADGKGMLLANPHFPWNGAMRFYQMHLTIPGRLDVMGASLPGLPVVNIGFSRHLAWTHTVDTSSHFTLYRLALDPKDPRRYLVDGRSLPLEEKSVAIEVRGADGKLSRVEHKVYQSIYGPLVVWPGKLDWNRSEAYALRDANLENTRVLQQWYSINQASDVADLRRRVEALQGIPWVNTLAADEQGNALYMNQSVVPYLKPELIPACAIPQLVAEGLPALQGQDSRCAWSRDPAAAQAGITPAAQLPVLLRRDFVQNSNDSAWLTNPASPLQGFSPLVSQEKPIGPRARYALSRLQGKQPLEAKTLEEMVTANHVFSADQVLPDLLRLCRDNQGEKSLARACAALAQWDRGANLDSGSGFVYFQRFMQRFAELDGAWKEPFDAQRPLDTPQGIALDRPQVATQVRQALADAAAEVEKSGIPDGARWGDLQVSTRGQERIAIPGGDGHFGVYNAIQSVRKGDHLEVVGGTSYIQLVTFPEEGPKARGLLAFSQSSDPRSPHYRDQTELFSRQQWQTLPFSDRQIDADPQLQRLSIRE

CCCCCOc1ccc(NC(=O)C(=O)NCCCn2ccnc2)cc1
IC50 [1]: > 80 µM (inactive)

CCCN(CCC)C(=O)C1c2ccccc2Oc2ccccc21
AC50 (HeLa): 81.4 µM (active)

O=C(Nc1nc2c(s1)CCCC2)C1COc2ccccc2O1 (stereo not drawn)
AC50 [2]: 12.1 µM (active) | EC50 [3]: 5.78 µM (active) | EC50 (HT-1080): > 50 µM (not active) | EC50 [4]: < 0.2 µM (active) | EC50 [5]: 6.51 µM (active) | AC50 [6]: 6.29 µM (active)

O=C(CCCn1c(=S)[nH]c2ccccc2c1=O)N1CCN(c2cccc(O)c2)CC1
IC50 (Estrogen receptor): 1.62 µM (not active)

Cn1c(=O)c2ccccc2n2c(CCl)nnc12
CC50 (Vero): 18 µM (active) | CC50 [7]: 30.5 µM (active)

O=C(Nc1ccc(Cl)cc1)c1cccs1
EC50 [8]: > 50 µM (active)

N#CC(c1ccc(Cl)nn1)c1ccc(Cl)cc1Cl (stereo not drawn)
AC50 [9]: 0.646 µM (active)
